What was measured:
[1] = Storage stability of chelators and nonradioactive Re complexes; type: physicochemical; conditions: for hydrolysis observed on storage: under dry conditions at RT for 3 months
[2] = In vitro radiocomplex stability in PBS buffer with no challenger, L-cysteine or L-histidine; type: physicochemical; conditions: 37 °C
Description: Radiocomplex stability testing was carried out in PBS buffer (350–400 μL) with either no challenger or L-cysteine (50 μL, 10 mM) or L-histidine (50 μL, 10 mM) as the challenger. All stability tests also contained ascorbic acid (50 μL, 1 mg/mL in PBS, pH 7) as a radioprotectant. HPLC-purified radiocomplexes ([^99mTc]Tc, 50 μL, 3.7–5.6 MBq, 100–150 μCi; [^186Re]Re, 50 μL, 1.9–3.7 MBq, 50–100 μCi) were added to the stability testing solutions and incubated at 37 °C. Aliquots of each solution were taken at 1, 4, and 24 h, and the stability of the complex was determined by radio-HPLC (Methods 1 and 3) or radio-TLC (Developer 1). An additional stability time point of 48 h was taken for the [^186Re]Re complexes. The formation of colloidal [^99mTc]TcO2 or [^186Re]ReO2 was monitored at each time point by radio-TLC (Developers 1 and 2).

[3] = Radiocomplex stability in rat serum; type: in vitro ADME; conditions: 37 °C
Description: The radiocomplex stability was also tested in rat serum. HPLC-purified radiocomplexes ([^99mTc]Tc, 50 μL, 7.4–11.1 MBq, 200–300 μCi; [^186Re]Re, 50 μL, 3.0–3.7 MBq, 80–100 μCi) were added to solutions of rat serum (400 μL, Innovative-grade U.S. Origin Sprague–Dawley Rat Serum, Innovative Research, Novi, MI) and ascorbic acid (50 μL, 1 mg/mL in PBS, pH 7). The rat serum mixtures were incubated at 37 °C. Aliquots (100–300 μL) were taken at 1, 4, and 24 h for all radiocomplexes and also at 48 h for the [^186Re]Re complexes. The rat serum aliquots were added to a 4 times volume of acetonitrile to precipitate the rat serum proteins. The solutions were vortexed for 1 min and centrifuged for 10 min. The supernatant was carefully removed, and the pellet was washed with another portion of acetonitrile (100–500 μL). The solution was again vortexed and centrifuged, and the supernatant was removed. The activities in the combined supernatants (containing radiocomplex not bound to proteins) and the pellet (containing radiocomplex bound to proteins) were measured to determine the percentage of nonspecific protein binding for each radiocomplex. Finally, the solvent was removed from the supernatant under a stream of nitrogen, and the stability of the radiocomplexes was determined by radio-HPLC (Methods 1 and 3) after reconstitution in PBS (1 mM, pH 7.4). The formation of colloidal [^99mTc]TcO2 or [^186Re]ReO2 was also monitored at each time point by radio-TLC (Developers 1 and 2).

Solubility (qualitative) = type: physicochemical

Q: Which “hydrolysis observed on storage” value [1] does the source give for “fac-[Re(CO)3(TACN-benzylamide methyl ester)]^+ [Re-5]” here?
A: < 5%

Q: With CCOC(=O)CN1CCN(CC(=O)O)CCN(CC(=O)NCc2ccccc2)CC1.O=[C]=[99Tc+](=[C]=O)=[C]=O [[^99mTc]Tc-8] as the compound, how does the “stability in PBS, L-cysteine, and L-histidine” value (“stability in PBS, L-cysteine” for short) ([2]; through 24 h) read?
A: 100%

Q: What about the “stability in rat serum” value ([3]; 24 h) of the same compound?
A: > 60%

Q: With COC(=O)CN1CCN(CC(=O)NCc2ccccc2)CCN(CC(=O)OC)CC1.O=[C]=[186Re+](=[C]=O)=[C]=O [[^186Re]Re-5] as the compound, how does the “stability in PBS, L-cysteine” value ([2]; through 4 h) read?
A: > 95%

Q: What about the “stability in PBS, L-cysteine” value ([2]; through/after 48 h) of the same compound?
A: > 76%

Q: And the “stability in rat serum” value ([3]; 48 h)?
A: 4 ± 1%

Q: What about the “stability in rat serum” value ([3]; at 1 h) of the same compound?
A: 88 ± 1%

Q: For COC(=O)CN1CCN(CC(=O)NCc2ccccc2)CCN(CC(=O)OC)CC1 [Chelator 5, TACN-benzylamide Methyl Ester], which “time stable on storage” value ([1]; stored in a methanol solution, afterwards ester hydrolysis observed) is on record?
A: up to 1 week

Q: And the “solubility (solvents in which soluble)” value (Solubility (qualitative))?
A: soluble in methanol and acetonitrile

Q: Which results are given for “fac-[Re(CO)3(TACN-benzylamide)]^+ [Re-3]”?
A: time stable on storage ([1]; stored under dry, dark conditions at RT): 1 month; solubility (solvents in which soluble) (Solubility (qualitative)): soluble in water

Q: For CCOC(=O)CN1CCN(CC(=O)NCc2ccccc2)CCN(CC(=O)OCC)CC1.O=[C]=[99Tc+](=[C]=O)=[C]=O [[^99mTc]Tc-6], which “stability in PBS, L-cysteine” value ([2]; through 4 h) is on record?
A: > 90%

Q: And the “stability in PBS, L-cysteine” value ([2]; through 24 h)?
A: > 79%

Q: And the “stability in rat serum” value ([3]; 24 h)?
A: ≤ 2%

Q: With CCOC(=O)CN1CCN(CC(=O)NCc2ccccc2)CCN(CC(=O)OCC)CC1.O=[C]=[186Re+](=[C]=O)=[C]=O [[^186Re]Re-6] as the compound, how does the “stability in PBS, L-cysteine” value ([2]; through 4 h) read?
A: > 95%

Q: What about the “stability in PBS, L-cysteine” value ([2]; through/after 48 h) of the same compound?
A: > 76%

Q: What about the “stability in rat serum” value ([3]; 48 h) of the same compound?
A: ≤ 2%

Q: Which “stability in PBS, L-cysteine” value ([2]; through 24 h) does the source give for COC(=O)CN1CCN(CC(=O)O)CCN(CC(=O)NCc2ccccc2)CC1.O=[C]=[99Tc+](=[C]=O)=[C]=O [[^99mTc]Tc-7] here?
A: 100%

Q: What about the “stability in rat serum” value ([3]; 24 h) of the same compound?
A: > 60%

Q: With CCOC(=O)CN1CCN(CC(=O)O)CCN(CC(=O)NCc2ccccc2)CC1.O=[C]=[186Re+](=[C]=O)=[C]=O [[^186Re]Re-8] as the compound, how does the “stability in PBS, L-cysteine” value ([2]; through/after 48 h) read?
A: > 94%

Q: And the “stability in rat serum” value ([3]; 48 h)?
A: 42%

Q: Which “solubility (solvents in which soluble)” value (Solubility (qualitative)) does the source give for COC(=O)CN1CCN(CC(=O)O)CCN(CC(=O)NCc2ccccc2)CC1 [Chelator 7, TACN-benzylamide Acid Methyl Ester] here?
A: soluble in methanol, ethanol, and water

Q: With COC(=O)CN1CCN(CC(=O)O)CCN(CC(=O)NCc2ccccc2)CC1.O=[C]=[186Re+](=[C]=O)=[C]=O [[^186Re]Re-7] as the compound, how does the “stability in PBS, L-cysteine” value ([2]; through/after 48 h) read?
A: > 94%

Q: What about the “stability in rat serum” value ([3]; 48 h) of the same compound?
A: 38%

Q: With O=C(O)CN1CCN(CC(=O)O)CCN(CC(=O)NCc2ccccc2)CC1 [Chelator 4, TACN-benzylamide Acid] as the compound, how does the “time stable on storage” value ([1]; at RT in an aqueous solution, in words) read?
A: several months

Q: And the “solubility (solvents in which soluble)” value (Solubility (qualitative))?
A: soluble in water, methanol, and acetonitrile

Q: With CCOC(=O)CN1CCN(CC(=O)NCc2ccccc2)CCN(CC(=O)OCC)CC1 [Chelator 6, TACN-benzylamide Ethyl Ester] as the compound, how does the “time stable on storage” value ([1]; stored in an ethanol solution) read?
A: up to 1 week

Q: And the “solubility (solvents in which soluble)” value (Solubility (qualitative))?
A: soluble in ethanol and acetonitrile

Q: For CCOC(=O)C[N+]12CC[N+]3(CC(=O)NCc4ccccc4)CC[N+](CC(=O)OCC)(CC1)[Re-2]32.[C-]#[O+].[C-]#[O+].[C-]#[O+] (stereo not shown) [Re-6, fac-[Re(CO)3(TACN-benzylamideethyl ester)]^+], which “hydrolysis observed on storage” value [1] is on record?
A: no hydrolysis observed

Q: With “fac-[Re(CO)3(TACN-benzylamide acid)]^+ [Re-4]” as the compound, how does the “time stable on storage” value ([1]; stored under dry conditions, in words) read?
A: several months

Q: What about the “solubility (solvents in which soluble)” value (Solubility (qualitative)) of the same compound?
A: soluble in water and methanol

Q: With COC(=O)CN1CCN(CC(=O)NCc2ccccc2)CCN(CC(=O)OC)CC1.O=[C]=[99Tc+](=[C]=O)=[C]=O [[^99mTc]Tc-5] as the compound, how does the “stability in PBS, L-cysteine” value ([2]; through 4 h) read?
A: > 90%

Q: And the “stability in PBS, L-cysteine” value ([2]; through 24 h)?
A: > 79%

Q: What about the “stability in rat serum” value ([3]; 24 h) of the same compound?
A: 32 ± 10%

Q: And the “stability in rat serum” value ([3]; at 1 h)?
A: 94 ± 1%

Q: With O=C(CN1CCNCCNCC1)NCc1ccccc1 [Chelator 3, N-Benzyl-2-(1,4,7-triazonan-1-yl)acetamide] as the compound, how does the “solubility (solvents in which soluble)” value (Solubility (qualitative)) read?
A: soluble in water, methanol, and acetonitrile

Q: For CCOC(=O)CN1CCN(CC(=O)O)CCN(CC(=O)NCc2ccccc2)CC1 [Chelator 8, TACN-benzylamide Acid Ethyl Ester], which “solubility (solvents in which soluble)” value (Solubility (qualitative)) is on record?
A: soluble in ethanol and acetonitrile

Reference: paper PMC10732151, “1,4,7-Triazacyclononane-Based Chelators for the Complexation of [^186Re]Re- and [^99mTc]Tc-Tricarbonyl Cores” (Inorganic Chemistry, 2023)
